According to patent US4939142A, “Substituted styrene derivatives” (priority 1989, dated 1990):

Tests used:
motility = assay: animal or person; assay type: in vivo; conditions: for ED50: Mus musculus, po; for Therapeutical index: Table II, motility inhibition, LD50/ED50
Description: The test is accomplished according to the method of Borsy et al. in a 10-channel Dews system equipment, whereby 3 mice are used per channel. The test compound or the carrier, respectively, is administered orally, and one hour after the said treatment the animals are placed into the apparatus and the number of the interruptions of infrared radiation is registered for 30 minutes.
The results are summarized in Table II and documented by means of suitable statistics for each experiment.
[J. Borsy, E. Csanyi, I. Lazar: Arch. Int. Pharmacodyn. 124, 1 (1960)].

maximal electroshock = assay: Inhibition of maximal electroshock on mice; conditions: for ED50: Mus musculus, po; for Therapeutical index: Table VI, maximal electroshock, LD50/ED50
Description: The test is carried out on white mice weighing 20-25 g. The animals receive an electric shock through corneal electrodes (50 Hz; 45 mA, 0.4 sec.). A total inhibition of the tonus extensor spasms of the posterior extremities is regarded as the criterium of anticonvulsive effect. The test compound and the carrier, respectively, are administered orally an hour before the electric shock.

in vivo = conditions: mouse, in vivo, po
Description: (§1) Male and female white mice (CFLP strain, 18-22 g) are used, 10 animals per dose. The test compounds are administered orally in a volume of 20 ml/kg. After administration the mice are observed for a period of 7 days. The animals are kept in plastic boxes, on wood litter, at room temperature. The animals receive standard mouse fodder and tap water ad libitum.

hexobarbital narcosis = assay: Hexobarbital narcosis potentiating effect; conditions: for ED50: Mus musculus, po; for Therapeutical index LD50 /ED50: Table I, hexobarbital narcosis
Description: The test is carried out on white mice. Groups consisting of six mice are used for each dose and test compound. The test compound is administered orally and an hour after this treatment narcosis is induced by means of a 40 mg/kg i.v. dose of hexobarbital. The control group receives carrier instead of the test compound.
Those mice are considered to be having a positive reaction which show a narcosis time at least 2.5 times longer than that of the control group. The ED50 values thus transformed are calculated.

tetrabenazine ptosis = assay: Tetrabenazin ptosis antagonism (Hoffmeister et al.); assay type: in vivo; conditions: Table III; for ED50: Mus musculus, oral, 30 min before tetrabenazin 50 mg/kg i.p.; for Therapeutical index: tetrabenazin ptosis, LD50/ED50
Description: The test is carried out by the method of Hoffmeister et al. adapted to mice. Groups consisting of 10-20 animals are treated orally with each dose of the test compound. The control group is treated orally with the carrier. Thirty minutes later a 50 mg/kg i.p. tetrabenazine dose is administered, whereupon after 30, 60, 90 and 120 minutes the animals with closed eye-lids are counted in each group.
On the basis of all measurements an average ptosis is calculated for each group and expressed as the percentile deviation (inhibition) from the control group. On the basis of the data thus obtained ED50 values are calculated.
[Hoffmeister, F., Wuttke, W., and Kroneberg, G.: Arzneim. Forsch. (Drug.

pentetrazole spasm = assay: Inhibition of pentetrazol spasm on mice; conditions: for ED50: Mus musculus, po; for Therapeutical index: Table V, pentetrazole spasm, LD50/ED50
Description: The modified method of Benziger and Hane is used on white mice. Groups consisting of 6 animals are used for each dose. […] The test compounds are administered orally one hour before the treatment with pentetrazole; in the control group the animals obtain the carrier orally at the same points of time.
The therapeutical index data disclosed in the above Tables are calculated by means of the following equation: [formula]

[1] = system: nicotine spasm and lethality; assay: Inhibition of nicotine spasm and lethality on mice (Stone); assay type: in vivo; conditions: Table VIII; for ED50: Mus musculus, oral, 1 h before nicotine 1.4 mg/kg i.v.; for Therapeutical index: nicotine spasm and lethality, LD50/ED50
Excerpt: [Stone, C. C., Mecklenburg, K. L., Torchiana, M. L.: Arch. Int.

yohimbin toxicity = assay: animal or person; conditions: for ED50: Mus musculus; for Therapeutical index: Table IV, yohimbin toxicity, LD50/ED50
Description: The test is carried out according to the method of Quinton. Groups consisting of 10 mice are used for each dose. The animal groups are treated with the suitable doses of the test compounds while the control group is treated with a carrier. An hour after the treatment a sublethal dose of yohimbin is administered intraperitoneally in a volume of 20 ml/kg. The perished animals are counted after 1 and 24 hours.

acetic acid writhing = assay: Acetic acid "writhing test" on mice (Newbould); assay type: in vivo, white mice; conditions: Table VII; for ED50: Mus musculus, oral, 1 h before acetic acid i.p., read-out: ED50; for Therapeutical index: acetic acid writhing, LD50/ED50
Description: In the period between the 5th and 10th minutes following the administration of acetic acid the number of the characteristic "writhing" responses is counted for each animal and the "total writhing number" (within 5 minutes) is expressed as the percentage of the value obtained for the control animals. The mice are treated with the test compound and the carrier, respectively, orally 1 hour before the administration of acetic acid. 12 animals are used per dose.
[Newbould, B. D.: Brit.

[2] = system: experimental coronary insufficiency induced by vasopressine; assay: Antianginal effect on rats, vasopressine-induced coronary insufficiency, T-wave (Nieschultz); assay type: in vivo, male rats; conditions: Table IX, dose 2 mg/kg, vasopressine 1 IU/kg i.v.
Description: The test is carried out on male rats weighing 180-220 g. The animals are narcotized with the aid of chloralose urethane (70-700 mg/kg i.p.). ECG is registered by means of needle electrodes in standard II output. Antianginal effect is tested according to the method of Nieschultz. Experimental coronary insufficiency is induced by administering vasopressine (1 IU/kg i.v.) on 10-12 animals for each dose. The magnitude of the T-wave before and after the administration of vasopressine is measured in the treated and control groups.

mice = assay: in vivo; conditions: 10080 min
Description: as §1

ulcus secretion = assay: animal or person; assay type: in vivo; conditions: for ED50: Rattus norvegicus, po, 5 h; for Therapeutical index: Table X, ulcus secretion, LD50/ED50
Description: The test is carried out according to the method of Nakamura on rats (Wistar strain) weighing 150-230 g and fasted for 48 hours. Each animal group consists of 4 male and 4 female rats. On the day of the experiment the pylorus of the animals is bound and the corresponding dose of the test compound is administered orally immidiately after operation. The animals are killed with ether 5 hours after the operation, their stomach is removed, cut along the large curve and placed on plastic plates.

CC(CO/N=C1C=C(/C=C/c2ccccc2)CC(C)(C)C/1)CN(C)C (racemic) [Example 13, D,L-5,5-Dimethyl-3-(E)-phenyl-vinyl-1-(E)-(3'-dimethylamino-2'-methyl-propoxyimino)-2-cyclohexene]
ED50 (motility): 100 mg/kg | Therapeutical index (motility): 18.0 | ED50 (maximal electroshock): 64 mg/kg | Therapeutical index (maximal electroshock): 28.1 | LD50 at 168 h (in vivo): 1800 mg/kg | ED50 (hexobarbital narcosis): 9 mg/kg | Therapeutical index LD50 /ED50 (hexobarbital narcosis): 200.0

CC(CO/N=C1C=C(/C=C/c2ccc(Cl)cc2)CC(C)(C)C/1)CN(C)C (racemic) [Example 18, D,L-5,5-Dimethyl-3-(E)-[(4'-chloro-phenyl)-vinyl]-1-(E)-(3"-dimethylamino-2"-methyl-propoxyimino)-2-cyclohexene]
ED50 (tetrabenazine ptosis): 40 mg/kg | Therapeutical index (tetrabenazine ptosis): 50.0 | LD50 at 168 h (in vivo): 2000 mg/kg | ED50 (pentetrazole spasm): 190 mg/kg | Therapeutical index (pentetrazole spasm): 10.5 | ED50 [1]: 88 mg/kg | Therapeutical index [1]: 22.7

CN(C)CCC=C1c2ccccc2CCc2ccccc21 [Amitriptylin, reference compound]
ED50 (tetrabenazine ptosis): 12 mg/kg | ED50 (yohimbin toxicity): 12.5 mg/kg | Therapeutical index (yohimbin toxicity): 18

CN(C)CCCO/N=C1C=C(/C=C/c2ccccc2)CC(C)(C)C/1 [Example 1, 5,5-Dimethyl-3-(E)-phenyl-vinyl-1-(E)-(3'-dimethylamino-propoxyimino)-2-cyclohexene]
ED50 (motility): 60 mg/kg | Therapeutical index (motility): 22.0 | ED50 (maximal electroshock): 110 mg/kg | Therapeutical index (maximal electroshock): 11.8 | LD50 at 168 h (in vivo): 1300 mg/kg | ED50 (acetic acid writhing): 160 mg/kg | Therapeutical index (acetic acid writhing): 8.1 | ED50 (pentetrazole spasm): 56 mg/kg | Therapeutical index (pentetrazole spasm): 23.2 | ED50 [1]: 12 mg/kg | Therapeutical index [1]: 108.0

CN(C)CCO/N=C1C=C(/C=C/c2ccccc2)CC(C)(C)C/1 [Example 3, 5,5-Dimethyl-3-(E)-phenyl-vinyl-1-(E)-(2'-dimethylamino-ethoxyimino)-2-cyclohexene]
ED50 (motility): 58 mg/kg | Therapeutical index (motility): 17.0 | ED50 (maximal electroshock): 88 mg/kg | Therapeutical index (maximal electroshock): 11.4 | LD50 at 168 h (in vivo): 1000 mg/kg | ED50 (pentetrazole spasm): 68 mg/kg | Therapeutical index (pentetrazole spasm): 14.7 | ED50 [1]: 33 mg/kg | Therapeutical index [1]: 30.3

CN(C)CCCO/N=C1C=C(/C=C/c2cccc(Cl)c2)CC(C)(C)C/1 [Example 8, 5,5-Dimethyl-3-(E)-[(3'-chloro-phenyl)-vinyl]-1-(E)-(3"-dimethylamino-propoxyimino)-2-cyclohexene]
ED50 (motility): 170 mg/kg | Therapeutical index (motility): 11.8 | ED50 (yohimbin toxicity): 35 mg/kg | Therapeutical index (yohimbin toxicity): 57.1 | LD50 at 168 h (in vivo): 2000 mg/kg | ED50 (acetic acid writhing): 178 mg/kg | Therapeutical index (acetic acid writhing): 11.2 | ED50 (pentetrazole spasm): 58 mg/kg | Therapeutical index (pentetrazole spasm): 34.5 | ED50 (hexobarbital narcosis): 180 mg/kg | Therapeutical index LD50 /ED50 (hexobarbital narcosis): 11.1 | ED50 [1]: 35 mg/kg

CC1(C)CC(/C=C/c2ccc(Cl)cc2)=CC(=N/OCCCN2CCN(Cc3ccccc3)CC2)/C1 [Example 20, 5,5-Dimethyl-3-(E)-[(4'-chloro-phenyl)-vinyl]-1-(E)-(4"-phenyl-methyl-1"-piperazinyl-propoxyimino)-2-cyclohexene]
ED50 (tetrabenazine ptosis): 8.5 mg/kg | Therapeutical index (tetrabenazine ptosis): 235.3 | LD50 at 168 h (in vivo): 2000 mg/kg | Inhibition % [2]: -54.4%

CC1(C)CC(/C=C/c2ccccc2Cl)=CC(=N/OCCN2CCCCC2)/C1 [Example 26, 5,5-Dimethyl-3-(E)-[(2'-chloro-phenyl)-vinyl]-1-(E)-(N-piperdinyl-ethoxyimino)-2-cyclohexene]
ED50 (motility): ~200 mg/kg | Therapeutical index (motility): > 5.0 | LD50 (mice; Table II, oral, mice): > 1000 mg/kg | LD50 at 168 h (in vivo): > 1000 mg/kg | ED50 (ulcus secretion): ~50 mg/kg | Therapeutical index (ulcus secretion): above 20

CC1(C)CC(/C=C/c2cccc(Cl)c2)=CC(=N/OCCN2CCOCC2)/C1 [Example 28, 5,5-Dimethyl-3-(E)-[(3'-chloro-phenyl)-vinyl]-1-(E)-(N-morpholino-ethoxyimino)-2-cyclohexene]
Inhibition % [2]: -31%

COc1cccc(/C=C/C2=CC(=N/OCCN3CCOCC3)/CC(C)(C)C2)c1 [Example 29, 5,5-Dimethyl-3-(E)-[(3'-methoxy-phenyl)-vinyl]-1-(E)-(N-morpholino-ethoxyimino)-2-cyclohexene]
ED50 (motility): ~200 mg/kg | Therapeutical index (motility): > 10.0 | LD50 (mice; Table I, oral, mice): > 2000 mg/kg | LD50 (mice; Table II, oral, mice): > 2000 mg/kg | LD50 (mice; Table X): above 2000 mg/kg | LD50 at 168 h (in vivo): > 2000 mg/kg | ED50 (ulcus secretion): ~200 mg/kg | Therapeutical index (ulcus secretion): above 10.0 | ED50 (acetic acid writhing): ~160 mg/kg | Therapeutical index (acetic acid writhing): > 12.5 | ED50 (hexobarbital narcosis): 21.5 mg/kg | Therapeutical index LD50 /ED50 (hexobarbital narcosis): > 93.0

COc1cccc(/C=C/C2=CC(=N/OCCCN3CCOCC3)/CC(C)(C)C2)c1 [Example 30, 5,5-Dimethyl-3-(E)-[(3'-methoxy-phenyl)-vinyl]-1-(E)-(N-morpholino-propoxyimino)-2-cyclohexene]
ED50 (motility): ~200 mg/kg | Therapeutical index (motility): > 10.0 | LD50 (mice; Table I, oral, mice): > 2000 mg/kg | LD50 (mice; Table II, oral, mice): > 2000 mg/kg | LD50 at 168 h (in vivo): > 2000 mg/kg | ED50 (ulcus secretion): ~150 mg/kg | Therapeutical index (ulcus secretion): above 13.3 | Inhibition % [2]: -45% | ED50 (hexobarbital narcosis): 21.5 mg/kg | Therapeutical index LD50 /ED50 (hexobarbital narcosis): > 93.0

COc1ccccc1/C=C/C1=CC(=N/OCCN2CCCCC2)/CC(C)(C)C1 [Example 33, 5,5-Dimethyl-3-(E)-[(2'-methoxy-phenyl)-vinyl]-1-(E)-(N-piperidinyl-ethoxyimino)-cyclohexene]
LD50 at 168 h (in vivo): > 1000 mg/kg | Inhibition % [2]: -47.1% | ED50 (pentetrazole spasm): 63 mg/kg | Therapeutical index (pentetrazole spasm): > 15.9

CC1(C)CC(/C=C/c2cccc(Cl)c2)=CC(=N/OCCCN2CCOCC2)/C1 [Example 34, 5,5-Dimethyl-3-(E)-[(3'-chloro-phenyl)-vinyl]-1-(E)-(N-morpholino-propoxyimino)-2-cyclohexene]
LD50 (mice; Table VII, oral, mice): > 2000 mg/kg | LD50 (mice; Table X): above 2000 mg/kg | LD50 at 168 h (in vivo): > 2000 mg/kg | ED50 (ulcus secretion): ~100 mg/kg | Therapeutical index (ulcus secretion): above 20.0 | ED50 (acetic acid writhing): ~200 mg/kg | Therapeutical index (acetic acid writhing): > 10.0 | ED50 (pentetrazole spasm): 180 mg/kg | Therapeutical index (pentetrazole spasm): > 11.0

CN1C(=O)OC(C)(C)C1=O [Trimethadion, reference compound]
ED50 (maximal electroshock): 400 mg/kg | Therapeutical index (maximal electroshock): 5.1 | ED50 (pentetrazole spasm): 490 mg/kg

COc1cc(C(=S)N2CCOCC2)cc(OC)c1OC [Trithiozine, reference compound]
ED50 (ulcus secretion): ~240 mg/kg
